This is an account of results in US5219998A, “Yeast-derived epidermal growth factor” (priority 1991, dated 1993).

The Kd is the constant that tells how readily two partners part at equilibrium.

Some results are limits rather than exact numbers.

The subject of data set [1] is A431 cells. Kind of data set: A431 cellular respiration assay (Clark oxygen electrode). The format is cell-based, human. The method, then:
In preparing to carry out the titration the results of which are shown in FIG. 2, 10 cm dishes of A431 cells were washed twice and incubated in 5 ml of DME containing 0.1% bovine serum albumin for 1 hour in a CO2 incubator. The cells were collected by trypsinization and resuspended at 2-3×10^6 cells per ml in DME containing 0.1% bovine serum albumin. One ml of the cell suspension was transferred to a glass tube that as maintained at 37° C. with circulating water. The cells were allowed to equilibrate at temperature for 5 minutes, and a Clark oxygen electrode was inserted into the vessel. Potentiometric readings were continuously taken from the electrode using a YSI oxygraph that was attached to a recorder. […] Respiration was allowed to continue until an accurate rate could be observed on the recorder. The rates of respiration were converted to microliters of oxygen per hour per 2×10^6 cells.
Similarly, the yEGF fractions were titered by measuring their immediate effect on the consumption of oxygen by A431 cells.
The Experimental Over Control (EXP/CON) is the rate of respiration observed with yEGF(Fraction I) divided by the basal respiration rate for that sample.

The next data set concerns anti-mEGF antibody. Kind of data set: Anti-murine EGF Elisa titration. The format is binding, goat. Particulars: Elisa absorbance; significant at <0.1; standard error 0.019. As for the experimental part:
One ml of a 100 mg/ml sample of a yeast extract yEGF(Fraction I) was diluted to 10% with trichloroacetic acid (Fisher Scientific no. A322-100) and allowed to stand for 30 minutes on ice. Precipitated material was collected on a centrifuge at 10,000×g for 10 minutes, and washed twice with 95% ethanol. The insoluble material was dissolved in 1 ml of water and dispersed in a 96 well plate by serial dilutions. Unbound antigen was removed after 3 hours at 37° C. and the plate was incubated with monospecific anti-mEGF antibody overnight at 4° C. Excess antibody was removed by washing the plates and a second antibody conjugated to alkaline phosphatase was added to each well. After 3 hours at 37° C., the excess second antibody was removed and the amount of alkaline phosphatase per well was determined. The Elisa test was dependent on the amount of y-EGF present. In preparation of the materials for the titration shown in the graph of FIG. 6, one hundred microliters of PBS was added to each well of a 96 well microtiter plate. Twenty five microliters of 10 mg/ml yEGF was added to the second well of each row. After mixing, 25 microliters was transferred to the third well in the row. The process was repeated until all the wells had dilutions of yEGF. The antigen was allowed to bind at 37° C. for 3 hours and the plate was washed 3 times with PBS containing 0.05% Tween-20(TPBS). […]

In data set [2] the test system is A431 cells. Kind of data set: Relative stability at 55° C. measured by stimulation of A431 cellular respiration. Particulars: 100 ng of mEGF. The format is cell-based, human. As for the experimental part:
Referring to FIG. 4, a graph is shown summarizing the results obtained for yEGF(Fraction I) and mEGF.
In preparation for the titration the results of which are shown in FIG. 4, twenty microliter samples of either 100 ng of mEGF or 500 ug of yEGF(Fraction I) were incubated for various times at 55° C. The samples were removed and assayed for their ability to stimulate A431 cell respiration. The procedures for measuring respiration were the same as those which are summarized in relationship to the work leading to FIG. 2.

The target of another data set is human EGF receptor (Homo sapiens, UniProt P00533). Kind of data set: Binding to EGF receptor of A431 cells (125I-mEGF competition). To be noted: read-out: binding constant (KD), same experiment.

Turning to “mEGF: pure murine EGF (Collaborative Research no 40001)”, the “% Stimulation of A431 respiration” value is 1.5% in the data set on A431 cells [1] (6.5 ug/ml a-mEGF); 91.8% in the data set with A431 cells [1] (10 ug/ml murine IGG); 44.8% with A431 cells [1] (0.1mM DTT); 17.8% with A431 cells [1] (no pretreatment, 0.5 ug/ml mEGF or 1.0 mg/ml yEGF (Fraction I)); 1.0% in the data set on A431 cells [1] (pretreatment 30 min 2 ug/ml ProK); 17.6% in the data set on A431 cells [1] (pretreatment 30 min 2 ug/ml RNase A). The “% Stimulation of A431 respiration” value is 1% with A431 cells [1] (pretreatment 30 min 2ug/ml trypsin), 18.2% in the data set with A431 cells [1] (pretreatment 30 min 10 ug/ml DNasel) and 2.1% in the data set with A431 cells [1] (pretreatment Boiling). Further, the “effect of Dithiotrietol (DTT) on activity” value in the data set on A431 cells [1] (DTT) is “enhanced”. Also, the “slope of regression Z=1.512 ug/ml EGF+1.03” value in the data set with A431 cells [1] (Z = respiration ratio to control, concentration in ug/ml, intercept 1.03, 98% confidence) came to 1.512. Besides, in the data set with A431 cells [1] (boiled), the activity after boiling entry was “denatured”. Also, the “regression coefficient: one ug equals 0.0518(ABS)--0.0223” value with anti-mEGF antibody is listed as 0.0518. Moreover, in the data set with A431 cells [2], the “time to loss of ability to stimulate respiration” value was at most 10 min. For the same substance, in the data set with human EGF receptor, the Kd stood at 2.42 nM.
